Data as given in ChEMBL document CHEMBL1201862, “PubChem BioAssay data set” (2004).
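Growth conditions: 96-well plates. Treatment: test compound, 48 hours, 5 concentrations. Analysis: linear interpolation between bracketing concentrations; unreached endpoints set to highest concentration. GI50 = concentration required for 50% inhibition of growth.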 The source made the active and inactive calls. Cut-off read from the data, not from the text of the source: active = GI50 up to about 1.1 µM and inactive = higher.

How the values were obtained:
Test in all cases: NCI tumour cell line growth inhibition, 48 h
[1] = test system: M19-MEL
[2] = test system: DLD-1
[3] = test system: LXFL 529
[4] = test system: DMS-114
[5] = test system: DMS-273
[6] = test system: RXF 631
[7] = test system: SNB-78
[8] = test system: HOP-18
[9] = test system: XF498

SMILES | GI50 [1] | GI50 [2] | GI50 [3] | GI50 [4] | GI50 [5] | GI50 [6] | GI50 [7] | GI50 [8] | GI50 [9]
Cc1cc2c(cc1C)[n+]([O-])c(C(=O)C/C(=N/NC(=S)NN)C(=O)Nc1cccc(C(F)(F)F)c1)c[n+]2[O-] | > 100 µM (inactive) | > 100 µM (inactive) | > 100 µM (inactive) | > 100 µM (inactive) | > 100 µM (inactive) | > 100 µM (inactive) | > 100 µM (inactive) | > 100 µM (inactive) | –
O=C1C2C=CC(n3[nH]c(=O)n(Cc4ccccc4)c3=O)CC2C(=O)N1c1cccc(Cl)c1 (stereo not drawn) | > 100 µM (inactive) | > 100 µM (inactive) | > 100 µM (inactive) | > 100 µM (inactive) | > 100 µM (inactive) | – | > 100 µM (inactive) | > 100 µM (inactive) | 65.9 µM (inactive)
OCc1cc2c(cn1)[nH]c1ccc(NCc3ccccc3)cc12 | 22.2 µM (inactive) | 34.8 µM (inactive) | 17.9 µM (inactive) | 15.6 µM (inactive) | 20.7 µM (inactive) | 27.4 µM (inactive) | – | – | 25.8 µM (inactive)
COc1ccc(Cc2c3cc(O)c([O-])cc3cc[n+]2C)cc1 | 20.7 µM (inactive) | 10.6 µM (inactive) | – | 12.8 µM (inactive) | 16.5 µM (inactive) | 6.49 µM (inactive) | > 100 µM (inactive) | 36.1 µM (inactive) | 18.4 µM (inactive)
O=C1OC(c2ccccc2)=N/C1=C/NC(Cc1ccccc1)C(=O)O (stereo not drawn) | > 100 µM (inactive) | > 100 µM (inactive) | > 100 µM (inactive) | – | > 100 µM (inactive) | > 100 µM (inactive) | > 100 µM (inactive) | – | –
N#CC(C#N)=CSc1ccccc1 | – | 24 µM (inactive) | 24.3 µM (inactive) | 17.7 µM (inactive) | 21.4 µM (inactive) | 20.6 µM (inactive) | – | > 100 µM (inactive) | 53.7 µM (inactive)
N#Cc1cc([N+](=O)[O-])ccc1NC(=O)/C(=N\NC(=O)c1ccncc1)C(c1cnc2ccc([N+](=O)[O-])cc2n1)[N+](=O)[O-] (stereo not drawn) | 0.566 µM (active) | – | 1.57 µM (inactive) | 1.6 µM (inactive) | 1.82 µM (inactive) | 2.32 µM (inactive) | 6.34 µM (inactive) | 1.5 µM (inactive) | 1.69 µM (inactive)
N#CC(C(=O)Nc1ccccc1)C1=C(Cl)C(=O)c2ccccc2C1=O (stereo not drawn) | 7.66 µM (inactive) | 17.1 µM (inactive) | 19.9 µM (inactive) | 17.8 µM (inactive) | – | – | 20.1 µM (inactive) | 10.7 µM (inactive) | 16.7 µM (inactive)
COc1ccc(/C=C/c2nnc(S)[nH]2)cc1OC | > 100 µM (inactive) | > 100 µM (inactive) | > 100 µM (inactive) | > 100 µM (inactive) | > 100 µM (inactive) | – | > 100 µM (inactive) | – | > 100 µM (inactive)
O=C1C(Cl)C(c2cc(Br)cc(Br)c2O)N1n1cnc2ccccc2c1=O (stereo not drawn) | 16.7 µM (inactive) | 8.87 µM (inactive) | 21 µM (inactive) | – | 29.4 µM (inactive) | – | 20.7 µM (inactive) | 24.5 µM (inactive) | 23.3 µM (inactive)
Nc1nc2c(ncn2CC(CO)CC(c2ccccc2)P(=O)(O)O)c(=O)[nH]1 (stereo not drawn) | > 100 µM (inactive) | > 100 µM (inactive) | > 100 µM (inactive) | > 100 µM (inactive) | > 100 µM (inactive) | – | > 100 µM (inactive) | > 100 µM (inactive) | > 100 µM (inactive)
CC1=CC(=O)CC2(C)CC[C@@H]3C[C@]12OC3(C)C (stereo partly drawn) | > 100 µM (inactive) | > 100 µM (inactive) | > 100 µM (inactive) | > 100 µM (inactive) | > 100 µM (inactive) | – | > 100 µM (inactive) | > 100 µM (inactive) | > 100 µM (inactive)
O=c1cc(-c2ccccc2F)[nH]c2cc3c(cc12)OCO3 | 0.236 µM (active) | 0.0441 µM (active) | 0.0403 µM (active) | 0.508 µM (active) | 0.189 µM (active) | – | 0.23 µM (active) | 0.544 µM (active) | 1.5 µM (inactive)
N=C1NC(=O)N2CC12 (stereo not drawn) [IMEXON] | – | > 100 µM (inactive) | > 100 µM (inactive) | > 100 µM (inactive) | > 100 µM (inactive) | – | – | > 100 µM (inactive) | > 100 µM (inactive)
